Laboratory results from article PMC10938783, “A novel pan-PI3K inhibitor KTC1101 synergizes with anti-PD-1 therapy by targeting tumor suppression and immune activation” (Molecular Cancer, 2024).
Values joined by “and” are separate entries in the source; they are usually repeats but may differ in a detail not shown here. Identical values can stand only once.

System: B16 cells gene expression
Experiment: RNA-Seq (DEGs, GSEA, heatmaps) of B16 cells
Settings: B16 cells, replicates KTC1-KTC3

COc1cc(N)cc2c1nc(C(F)F)n2-c1nc(N2CCCOCC2)nc(N2CCOCC2)n1 [KTC]
Adam19 gene expression (RNA-Seq) (KTC 0.04μM): 11.78 and 12.44 and 13.05
Axl gene expression (RNA-Seq) (KTC 0.04μM): 4.83 and 4.54 and 4.92
Btg1 gene expression (RNA-Seq) (KTC 0.04μM): 6.87 and 7.6 and 7.15
Capg gene expression (RNA-Seq) (KTC 0.04μM): 24.95 and 22.04 and 23.37
Ccl5 gene expression (RNA-Seq) (KTC 0.04μM): 9.15 and 9.99 and 10.19
Ccn1 gene expression (RNA-Seq) (KTC 0.04μM): 37.5 and 41.45 and 42.8
Ccnd1 gene expression (RNA-Seq) (KTC 0.04μM): 70.38 and 71.17 and 69.7
Cx3cl1 gene expression (RNA-Seq) (KTC 0.04μM): 1.55 and 2.17 and 1.72
Cxcl10 gene expression (RNA-Seq) (KTC 0.04μM): 16.76 and 15.67 and 17.26
Dusp1 gene expression (RNA-Seq) (KTC 0.04μM): 4.08 and 4.86 and 3.75
Dusp4 gene expression (RNA-Seq) (KTC 0.04μM): 48.69 and 51.07 and 50.43
Egr1 gene expression (RNA-Seq) (KTC 0.04μM): 0.45 and 0.83 and 0.94
Etv4 gene expression (RNA-Seq) (KTC 0.04μM): 1.8 and 1.31 and 1.55
Fos gene expression (RNA-Seq) (KTC 0.04μM): 5.98 and 9.07 and 3.6
Fosb gene expression (RNA-Seq) (KTC 0.04μM): 5.83 and 8.56 and 1.19
Hes1 gene expression (RNA-Seq) (KTC 0.04μM): 2.93 and 3.6 and 4.11
Irak2 gene expression (RNA-Seq) (KTC 0.04μM): 4.46 and 3.71 and 4.84
Irf6 gene expression (RNA-Seq) (KTC 0.04μM): 0.75 and 0.73 (2×)
Irs2 gene expression (RNA-Seq) (KTC 0.04μM): 4.62 and 4.54 and 4.48
Jag1 gene expression (RNA-Seq) (KTC 0.04μM): 3.9 and 3.6 and 3.87
Junb gene expression (RNA-Seq) (KTC 0.04μM): 5.41 and 5.91 and 6.31
Klf2 gene expression (RNA-Seq) (KTC 0.04μM): 2.37 and 2.53 and 1.84
Klf9 gene expression (RNA-Seq) (KTC 0.04μM): 1.42 and 1.56 and 1.52
Maff gene expression (RNA-Seq) (KTC 0.04μM): 1.99 and 1.97 and 1.81
Myc gene expression (RNA-Seq) (KTC 0.04μM): 51.1 and 50.03 and 54.71
Nfkb2 gene expression (RNA-Seq) (KTC 0.04μM): 19.99 and 21.56 and 22.54
Nfkbia gene expression (RNA-Seq) (KTC 0.04μM): 16.08 and 16.06 and 15.47
Nfkbie gene expression (RNA-Seq) (KTC 0.04μM): 12.93 and 13.17 and 14.09
Nr4a1 gene expression (RNA-Seq) (KTC 0.04μM): 27.6 and 28.38 and 30.22
Nr4a3 gene expression (RNA-Seq) (KTC 0.04μM): 13.97 and 13.13 and 12.62
P2rx7 gene expression (RNA-Seq) (KTC 0.04μM): 9.9 and 10.96 and 10.37
Pde4b gene expression (RNA-Seq) (KTC 0.04μM): 7.81 and 8.81 and 8.51
Pmepa1 gene expression (RNA-Seq) (KTC 0.04μM): 0.72 and 0.75 and 0.79
Pnrc1 gene expression (RNA-Seq) (KTC 0.04μM): 23.22 and 24.79 and 24.57
Relb gene expression (RNA-Seq) (KTC 0.04μM): 7.12 and 7.46 and 7.78
Rgs16 gene expression (RNA-Seq) (KTC 0.04μM): 6.49 and 5.97 and 6.54
Rhob gene expression (RNA-Seq) (KTC 0.04μM): 30.37 and 32.79 and 32.66
Serpine1 gene expression (RNA-Seq) (KTC 0.04μM): 0.22 and 0.24 and 0.32
Sgk1 gene expression (RNA-Seq) (KTC 0.04μM): 3.46 and 3.48 and 3.41
Sgms2 gene expression (RNA-Seq) (KTC 0.04μM): 0.2 and 0.16 and 0.24
Spred2 gene expression (RNA-Seq) (KTC 0.04μM): 15.32 and 15.07 and 16.22
Spry4 gene expression (RNA-Seq) (KTC 0.04μM): 1.16 and 1.17 and 1.15
Tiparp gene expression (RNA-Seq) (KTC 0.04μM): 15.99 and 15.69 and 16.6
Zc3h12a gene expression (RNA-Seq) (KTC 0.04μM): 2.43 and 2.61 and 1.93
Zfp36 gene expression (RNA-Seq) (KTC 0.04μM): 3.85 and 4.04 and 4.57
Adam19 gene expression (RNA-Seq) (KTC 0.2μM): 19.27 and 19.65 and 19.87
Adcy1 gene expression (RNA-Seq) (KTC 0.2μM): 0.05 (2×) and 0.09
Adcy6 gene expression (RNA-Seq) (KTC 0.2μM): 15.71 and 16.34 and 15.68
Adcy7 gene expression (RNA-Seq) (KTC 0.2μM): 24.18 and 23.98 and 24.16
Ahr gene expression (RNA-Seq) (KTC 0.2μM): 3.75 and 3.9 and 4.26
Arrb1 gene expression (RNA-Seq) (KTC 0.2μM): 7.32 and 7.58 and 7.1
Axl gene expression (RNA-Seq) (KTC 0.2μM): 19.13 and 18.11 and 18.34
Bcl3 gene expression (RNA-Seq) (KTC 0.2μM): 1.26 and 1.46 and 1.81
Birc3 gene expression (RNA-Seq) (KTC 0.2μM): 0.82 and 0.69 and 1.02
Btg1 gene expression (RNA-Seq) (KTC 0.2μM): 10.22 and 9.53 and 9.68
Capg gene expression (RNA-Seq) (KTC 0.2μM): 39.95 and 40.18 and 41.23
Ccl5 gene expression (RNA-Seq) (KTC 0.2μM): 26.92 and 30.51 and 26.01
Ccl6 gene expression (RNA-Seq) (KTC 0.2μM): 0.22 (2×) and 0.39
Ccl9 gene expression (RNA-Seq) (KTC 0.2μM): 0.11 and 0.07 and 0.02
Ccl27b gene expression (RNA-Seq) (KTC 0.2μM): 0.37 and 0.93 and 0.69
Ccn1 gene expression (RNA-Seq) (KTC 0.2μM): 43.03 and 43.88 and 47.2
Ccnd1 gene expression (RNA-Seq) (KTC 0.2μM): 93.08 and 94.99 and 95.21
Cish gene expression (RNA-Seq) (KTC 0.2μM): 2.04 and 1.79 and 1.74
Ckap4 gene expression (RNA-Seq) (KTC 0.2μM): 13.31 and 12.58 and 12.66
Cx3cl1 gene expression (RNA-Seq) (KTC 0.2μM): 1.83 and 1.75 and 1.74
Cxcl1 gene expression (RNA-Seq) (KTC 0.2μM): 0.29 and 0.77 and 0.5
Cxcl10 gene expression (RNA-Seq) (KTC 0.2μM): 23.61 and 22.04 and 22.99
Cxcr3 gene expression (RNA-Seq) (KTC 0.2μM): 1.95 and 1.7 and 1.8
Dcps gene expression (RNA-Seq) (KTC 0.2μM): 124.78 and 129.34 and 129.92
Dusp1 gene expression (RNA-Seq) (KTC 0.2μM): 6.18 and 4.88 and 5.31
Dusp4 gene expression (RNA-Seq) (KTC 0.2μM): 74.48 and 66.32 and 71.85
Egr1 gene expression (RNA-Seq) (KTC 0.2μM): 2.42 and 2.39 and 2.31
Egr2 gene expression (RNA-Seq) (KTC 0.2μM): 0.12 and 0.14 and 0.22
Etfbkmt gene expression (RNA-Seq) (KTC 0.2μM): 13.18 and 12.47 and 12.84
Etv4 gene expression (RNA-Seq) (KTC 0.2μM): 2.57 and 3.09 and 3.52
Fos gene expression (RNA-Seq) (KTC 0.2μM): 6.53 and 3.78 and 2.09
Fosb gene expression (RNA-Seq) (KTC 0.2μM): 6.21 and 3 and 0.33
Gnb4 gene expression (RNA-Seq) (KTC 0.2μM): 8.23 and 8.94 and 8.73
Gng11 gene expression (RNA-Seq) (KTC 0.2μM): 47.07 and 50.78 and 52.97
Gsto1 gene expression (RNA-Seq) (KTC 0.2μM): 56.3 and 52.98 and 58.2
Hes1 gene expression (RNA-Seq) (KTC 0.2μM): 4.87 and 4.41 and 5.8
Ifitm3 gene expression (RNA-Seq) (KTC 0.2μM): 48.58 and 48.45 and 50.69
Igf1r gene expression (RNA-Seq) (KTC 0.2μM): 6.64 and 6.31 and 6.49
Ikzf2 gene expression (RNA-Seq) (KTC 0.2μM): 0.58 and 0.65 and 0.83
Il3ra gene expression (RNA-Seq) (KTC 0.2μM): 8.13 and 8.28 and 7.91
Il4ra gene expression (RNA-Seq) (KTC 0.2μM): 0.35 and 0.33 and 0.39
Il15ra gene expression (RNA-Seq) (KTC 0.2μM): 0.8 and 0.77 and 0.98
Il18 gene expression (RNA-Seq) (KTC 0.2μM): 2.98 and 3.73 and 3.81
Irak2 gene expression (RNA-Seq) (KTC 0.2μM): 6.66 and 7.18 and 6.91
Irf6 gene expression (RNA-Seq) (KTC 0.2μM): 0.95 and 0.94 and 0.76
Irs2 gene expression (RNA-Seq) (KTC 0.2μM): 6.99 and 6.74 and 7.06
Jag1 gene expression (RNA-Seq) (KTC 0.2μM): 5.14 and 5.2 and 5.32
Junb gene expression (RNA-Seq) (KTC 0.2μM): 9.95 and 9.21 and 10.31
Klf2 gene expression (RNA-Seq) (KTC 0.2μM): 5.92 and 4.44 and 4.22
Klf4 gene expression (RNA-Seq) (KTC 0.2μM): 1.74 and 0.87 and 0.94
Klf9 gene expression (RNA-Seq) (KTC 0.2μM): 2.21 and 2.14 and 2.03
Lif gene expression (RNA-Seq) (KTC 0.2μM): 0.18 and 0.1 and 0.2
Lrrc8c gene expression (RNA-Seq) (KTC 0.2μM): 9.54 and 9.91 and 9.16
Maff gene expression (RNA-Seq) (KTC 0.2μM): 8.01 and 8.27 and 7.95
Myc gene expression (RNA-Seq) (KTC 0.2μM): 80.51 and 79.74 and 85.17
Nfkb2 gene expression (RNA-Seq) (KTC 0.2μM): 29.06 and 30.4 and 30.6
Nfkbia gene expression (RNA-Seq) (KTC 0.2μM): 28.35 and 27.12 and 24.65
Nfkbie gene expression (RNA-Seq) (KTC 0.2μM): 23.83 and 25.35 and 25
Nr4a1 gene expression (RNA-Seq) (KTC 0.2μM): 46.25 and 44.44 and 46.02
Nr4a3 gene expression (RNA-Seq) (KTC 0.2μM): 17.79 and 16.5 and 17.39
P2rx7 gene expression (RNA-Seq) (KTC 0.2μM): 16.97 and 18.85 and 16.56
Pde4b gene expression (RNA-Seq) (KTC 0.2μM): 11.38 and 11.69 and 11.76
Pim1 gene expression (RNA-Seq) (KTC 0.2μM): 7.35 and 8.15 and 8.02
Plcb2 gene expression (RNA-Seq) (KTC 0.2μM): 0.43 and 0.62 and 0.67
Plcg2 gene expression (RNA-Seq) (KTC 0.2μM): 1.3 and 1.71 and 1.76
Pmepa1 gene expression (RNA-Seq) (KTC 0.2μM): 1.45 and 1.08 and 1.06
Pnrc1 gene expression (RNA-Seq) (KTC 0.2μM): 33.48 and 28.22 and 29.95
Prnp gene expression (RNA-Seq) (KTC 0.2μM): 1380.34 and 1358.49 and 1354.58
Ptk2b gene expression (RNA-Seq) (KTC 0.2μM): 2.37 and 2.08 and 2.03
Relb gene expression (RNA-Seq) (KTC 0.2μM): 11.53 and 13.05 and 11.17
Rgs16 gene expression (RNA-Seq) (KTC 0.2μM): 9.71 and 10 and 9.9
Rhob gene expression (RNA-Seq) (KTC 0.2μM): 60.96 and 58.66 and 58.57
Serpine1 gene expression (RNA-Seq) (KTC 0.2μM): 1.09 and 0.86 and 1.2
Shc3 gene expression (RNA-Seq) (KTC 0.2μM): 0.37 and 0.31 and 0.25
Smad3 gene expression (RNA-Seq) (KTC 0.2μM): 20.9 and 21.03 and 22.24
Smpdl3a gene expression (RNA-Seq) (KTC 0.2μM): 36.94 and 40.39 and 39.45
Spred2 gene expression (RNA-Seq) (KTC 0.2μM): 19.27 and 21.51 and 19.83
Spry4 gene expression (RNA-Seq) (KTC 0.2μM): 2.44 and 2.59 and 2.62
Src gene expression (RNA-Seq) (KTC 0.2μM): 43.09 and 43.5 and 41.98
St3gal4 gene expression (RNA-Seq) (KTC 0.2μM): 75.01 and 74.93 and 70.63
Syt11 gene expression (RNA-Seq) (KTC 0.2μM): 7.36 and 7.81 and 7.47
Tlr2 gene expression (RNA-Seq) (KTC 0.2μM): 0.22 and 0.34 and 0.25
Tlr7 gene expression (RNA-Seq) (KTC 0.2μM): 0.79 and 0.75 and 0.7
Tnfaip3 gene expression (RNA-Seq) (KTC 0.2μM): 0.93 and 0.95 and 0.79
Zc3h12a gene expression (RNA-Seq) (KTC 0.2μM): 3.34 and 3.16 and 3.73
